Test results as given in BindingDB's records for doi:10.1002/bip.20588 (University of California Davis, 2006).
*1 amine or outer side, *2 acyl side, *3 side chain or, on linkers, in order; H or OH if unused. Where a SMILES comes first, the peptide text is derived from it. [ ]: non-standard residue; d: D form. The star is where a group is joined. ξ: configuration not given here. Phac(3-amino) = O=C(Cc1cccc(N[*:1])c1)[*:2]; X5 = O=C(c1ccc(-c2ccc(N[*:1])cc2)o1)[*:2]; X7 = O=C(c1ccc(-c2cccc(N[*:1])c2)o1)[*:2]; X13 = CC(C(=O)[*:2])c1ccc(N[*:1])cc1; X2 = O=C(/C=C/c1ccc(N[*:1])cc1)[*:2]; NH(2,6-Me2-phenyl) = Cc1cccc(C)c1N*; X14 = Cc1ccccc1NC(=O)Nc1ccc(N*)cc1; X3 = O=C(CCCc1ccc(N[*:1])cc1)[*:2]; X9 = Cc1ccccc1NC(=O)Nc1cccc(N*)c1; Ala(cPr) = N[C@@H](CC1CC1)C(=O)O; X1 = O=C(Cc1ccc(N[*:1])cc1)[*:2]; X8 = O=C(COc1ccccc1N[*:1])[*:2]; Ile(3ξ) = CCC(C)[C@H](N)C(=O)O; NH(2-Me-phenyl) = Cc1ccccc1N*; Tle = CC(C)(C)[C@H](N)C(=O)O; X12 = c1ccc(Oc2ccccc2N*)cc1; Isovaleryl = CC(C)CC(=O)*; 4Abz = Nc1ccc(C(=O)O)cc1; Heptanoyl = CCCCCCC(=O)*; Nle = CCCC[C@H](N)C(=O)O; Dap = NC[C@H](N)C(=O)O; X11 = CC(C)c1ccccc1N*; CO = O=C([*:1])[*:2]

Biological target: Integrin alpha-4/beta-1 (Homo sapiens, UniProt P05556+P13612, T112H)
Experiment: Jurkat Cell Adhesion Inhibition Assay
Details: not given
Method: Binding affinities (IC50) of the ligands were studied in a Jurkat cell adhesion assay by inhibiting the alpha-4/beta-1 mediated cell adhesion to CS-1 peptides. The 96-well plates were coated with neutravidin, followed by biotinconjugated CS-1 peptides. Jurkat cells with series dilutions of tested ligands in binding buffer were added and allowed to bind for 30 min. Bound cells were recorded using a 96-well plate reader at 570 nm. IC50 values were calculated from inhibition curves resulting from the concentration-dependent inhibition

Row | SMILES | IC50 [nM]
1 | CCCC[C@H](NC(=O)Cc1cccc(NC(=O)Nc2ccccc2C)c1)C(=O)N[C@@H](CC(=O)O)C(=O)N[C@H](C(=O)N1CCC[C@H]1C(N)=O)C(C)CC (stereo partly drawn) [(3S)-3-{[(2S,3S)-1-[(2S)-2-carbamoylpyrrolidin-1-yl]-3-methyl-1-oxopentan-2-yl]carbamoyl}-3-[(2S)-2-[1-(3-{[(2-methylphenyl)carbamoyl]amino}phenyl)acetamido]hexanamido]propanoic acid] ({NH(2-Me-phenyl)-CO}-[Phac(3-amino)][Nle]D[Ile(3ξ)]P-NH2) | 140
2 | CCCC[C@H](NC(=O)Cc1ccc(NC(=O)Nc2c(C)cccc2C)cc1)C(=O)N[C@@H](CC(=O)O)C(=O)N[C@H](C(=O)N1CCC[C@H]1C(N)=O)C(C)CC (stereo partly drawn) [(3S)-3-{[(2S,3S)-1-[(2S)-2-carbamoylpyrrolidin-1-yl]-3-methyl-1-oxopentan-2-yl]carbamoyl}-3-[(2S)-2-[1-(4-{[(2,6-dimethylphenyl)carbamoyl]amino}phenyl)acetamido]hexanamido]propanoic acid] ({NH(2,6-Me2-phenyl)-CO}-[X1][Nle]D[Ile(3ξ)]P-NH2) | 7.2
3 | CCCC[C@H](NC(=O)Cc1ccc(NC(=O)Nc2ccccc2Oc2ccccc2)cc1)C(=O)N[C@@H](CC(=O)O)C(=O)N[C@H](C(=O)N1CCC[C@H]1C(N)=O)C(C)CC (stereo partly drawn) [(3S)-3-{[(2S,3S)-1-[(2S)-2-carbamoylpyrrolidin-1-yl]-3-methyl-1-oxopentan-2-yl]carbamoyl}-3-[(2S)-2-[1-(4-{[(2-phenoxyphenyl)carbamoyl]amino}phenyl)acetamido]hexanamido]propanoic acid] ({X12-CO}-[X1][Nle]D[Ile(3ξ)]P-NH2) | 500
4 | CCCC[C@H](NC(=O)COc1ccccc1NC(=O)Nc1ccccc1C)C(=O)N[C@@H](CC(=O)O)C(=O)N[C@H](C(=O)N1CCC[C@H]1C(N)=O)C(C)CC (stereo partly drawn) [(3S)-3-{[(2S,3S)-1-[(2S)-2-carbamoylpyrrolidin-1-yl]-3-methyl-1-oxopentan-2-yl]carbamoyl}-3-[(2S)-2-[2-(2-{[(2-methylphenyl)carbamoyl]amino}phenoxy)acetamido]hexanamido]propanoic acid] ({NH(2-Me-phenyl)-CO}-[X8][Nle]D[Ile(3ξ)]P-NH2) | 463
5 | CCCC[C@H](NC(=O)C(C)c1ccc(NC(=O)Nc2ccccc2C)cc1)C(=O)N[C@@H](CC(=O)O)C(=O)N[C@H](C(=O)N1CCC[C@H]1C(N)=O)C(C)CC (stereo partly drawn) [(3S)-3-{[(2S,3S)-1-[(2S)-2-carbamoylpyrrolidin-1-yl]-3-methyl-1-oxopentan-2-yl]carbamoyl}-3-[(2S)-2-[2-(4-{[(2-methylphenyl)carbamoyl]amino}phenyl)propanamido]hexanamido]propanoic acid] ({NH(2-Me-phenyl)-CO}-[X13][Nle]D[Ile(3ξ)]P-NH2) | 3.1
6 | CCCC[C@H](NC(=O)CCCc1ccc(NC(=O)Nc2ccccc2C)cc1)C(=O)N[C@@H](CC(=O)O)C(=O)N[C@H](C(=O)N1CCC[C@H]1C(N)=O)C(C)CC (stereo partly drawn) [(3S)-3-{[(2S,3S)-1-[(2S)-2-carbamoylpyrrolidin-1-yl]-3-methyl-1-oxopentan-2-yl]carbamoyl}-3-[(2S)-2-[4-(4-{[(2-methylphenyl)carbamoyl]amino}phenyl)butanamido]hexanamido]propanoic acid] ({NH(2-Me-phenyl)-CO}-[X3][Nle]D[Ile(3ξ)]P-NH2) | 100
7 | CCCC[C@H](NC(=O)/C=C/c1ccc(NC(=O)Nc2ccccc2C)cc1)C(=O)N[C@@H](CC(=O)O)C(=O)N[C@H](C(=O)N1CCC[C@H]1C(N)=O)C(C)CC (stereo partly drawn) [(3S)-3-{[(2S,3S)-1-[(2S)-2-carbamoylpyrrolidin-1-yl]-3-methyl-1-oxopentan-2-yl]carbamoyl}-3-[(2S)-2-[(2E)-3-(4-{[(2-methylphenyl)carbamoyl]amino}phenyl)prop-2-enamido]hexanamido]propanoic acid] ({NH(2-Me-phenyl)-CO}-[X2][Nle]D[Ile(3ξ)]P-NH2) | 4.4
8 | CCCC[C@H](NC(=O)c1ccc(NC(=O)Nc2ccccc2C)cc1)C(=O)N[C@@H](CC(=O)O)C(=O)N[C@H](C(=O)N1CCC[C@H]1C(N)=O)C(C)CC (stereo partly drawn) [(3S)-3-{[(2S,3S)-1-[(2S)-2-carbamoylpyrrolidin-1-yl]-3-methyl-1-oxopentan-2-yl]carbamoyl}-3-[(2S)-2-[(4-{[(2-methylphenyl)carbamoyl]amino}phenyl)formamido]hexanamido]propanoic acid] ({NH(2-Me-phenyl)-CO-4Abz}-[Nle]D[Ile(3ξ)]P-NH2) | 3000
9 | CCCC[C@H](NC(=O)Cc1ccc(NC(=O)Nc2ccccc2C(C)C)cc1)C(=O)N[C@@H](CC(=O)O)C(=O)N[C@H](C(=O)N1CCC[C@H]1C(N)=O)C(C)CC (stereo partly drawn) [(3S)-3-{[(2S,3S)-1-[(2S)-2-carbamoylpyrrolidin-1-yl]-3-methyl-1-oxopentan-2-yl]carbamoyl}-3-[(2S)-2-{1-[4-({[2-(propan-2-yl)phenyl]carbamoyl}amino)phenyl]acetamido}hexanamido]propanoic acid] ({X11-CO}-[X1][Nle]D[Ile(3ξ)]P-NH2) | 531
10 | CCCC[C@H](NC(=O)c1ccc(-c2cccc(NC(=O)Nc3ccccc3C)c2)o1)C(=O)N[C@@H](CC(=O)O)C(=O)N[C@H](C(=O)N1CCC[C@H]1C(N)=O)C(C)CC (stereo partly drawn) [(3S)-3-{[(2S,3S)-1-[(2S)-2-carbamoylpyrrolidin-1-yl]-3-methyl-1-oxopentan-2-yl]carbamoyl}-3-[(2S)-2-{[5-(3-{[(2-methylphenyl)carbamoyl]amino}phenyl)furan-2-yl]formamido}hexanamido]propanoic acid] ({NH(2-Me-phenyl)-CO}-[X7][Nle]D[Ile(3ξ)]P-NH2) | 325
11 | CCCC[C@H](NC(=O)c1ccc(-c2ccc(NC(=O)Nc3ccccc3C)cc2)o1)C(=O)N[C@@H](CC(=O)O)C(=O)N[C@H](C(=O)N1CCC[C@H]1C(N)=O)C(C)CC (stereo partly drawn) [(3S)-3-{[(2S,3S)-1-[(2S)-2-carbamoylpyrrolidin-1-yl]-3-methyl-1-oxopentan-2-yl]carbamoyl}-3-[(2S)-2-{[5-(4-{[(2-methylphenyl)carbamoyl]amino}phenyl)furan-2-yl]formamido}hexanamido]propanoic acid] ({NH(2-Me-phenyl)-CO}-[X5][Nle]D[Ile(3ξ)]P-NH2) | 340
12 | CCCC[C@H](NC(=O)Nc1cccc(NC(=O)Nc2ccccc2C)c1)C(=O)N[C@@H](CC(=O)O)C(=O)N[C@H](C(=O)N1CCC[C@H]1C(N)=O)C(C)CC (stereo partly drawn) [(3S)-3-{[(2S,3S)-1-[(2S)-2-carbamoylpyrrolidin-1-yl]-3-methyl-1-oxopentan-2-yl]carbamoyl}-3-[(2S)-2-{[(3-{[(2-methylphenyl)carbamoyl]amino}phenyl)carbamoyl]amino}hexanamido]propanoic acid] ({X9-CO}-[Nle]D[Ile(3ξ)]P-NH2) | 3080
13 | CCCC[C@H](NC(=O)Nc1ccc(NC(=O)Nc2ccccc2C)cc1)C(=O)N[C@@H](CC(=O)O)C(=O)N[C@H](C(=O)N1CCC[C@H]1C(N)=O)C(C)CC (stereo partly drawn) [(3S)-3-{[(2S,3S)-1-[(2S)-2-carbamoylpyrrolidin-1-yl]-3-methyl-1-oxopentan-2-yl]carbamoyl}-3-[(2S)-2-{[(4-{[(2-methylphenyl)carbamoyl]amino}phenyl)carbamoyl]amino}hexanamido]propanoic acid] ({X14-CO}-[Nle]D[Ile(3ξ)]P-NH2) | 54
14 | CCC(C)[C@H](NC(=O)[C@H](CC(=O)O)NC(=O)[C@@H](NC(=O)Cc1ccc(NC(=O)Nc2ccccc2C)cc1)C(C)(C)C)C(=O)N1CCC[C@H]1C(N)=O (stereo partly drawn) [(3S)-3-{[(2S,3S)-1-[(2S)-2-carbamoylpyrrolidin-1-yl]-3-methyl-1-oxopentan-2-yl]carbamoyl}-3-[(2S)-3,3-dimethyl-2-[1-(4-{[(2-methylphenyl)carbamoyl]amino}phenyl)acetamido]butanamido]propanoic acid] ({NH(2-Me-phenyl)-CO}-[X1][Tle]D[Ile(3ξ)]P-NH2) | 7.1
15 | CCC(C)[C@H](NC(=O)[C@H](CC(=O)O)NC(=O)[C@H](CNC(=O)CC(C)C)NC(=O)Cc1ccc(NC(=O)Nc2ccccc2C)cc1)C(=O)N1CCC[C@H]1C(N)=O (stereo partly drawn) [(3S)-3-{[(2S,3S)-1-[(2S)-2-carbamoylpyrrolidin-1-yl]-3-methyl-1-oxopentan-2-yl]carbamoyl}-3-[(2S)-3-(3-methylbutanamido)-2-[1-(4-{[(2-methylphenyl)carbamoyl]amino}phenyl)acetamido]propanamido]propanoic acid] ({NH(2-Me-phenyl)-CO}-[X1][Dap](Isovaleryl)D[Ile(3ξ)]P-NH2) | 63
16 | CCC(C)[C@H](NC(=O)[C@H](CC(=O)O)NC(=O)[C@H](CC1CC1)NC(=O)Cc1ccc(NC(=O)Nc2ccccc2C)cc1)C(=O)N1CCC[C@H]1C(N)=O (stereo partly drawn) [(3S)-3-{[(2S,3S)-1-[(2S)-2-carbamoylpyrrolidin-1-yl]-3-methyl-1-oxopentan-2-yl]carbamoyl}-3-[(2S)-3-cyclopropyl-2-[1-(4-{[(2-methylphenyl)carbamoyl]amino}phenyl)acetamido]propanamido]propanoic acid] ({NH(2-Me-phenyl)-CO}-[X1][Ala(cPr)]D[Ile(3ξ)]P-NH2) | 64
17 | CCCCCCC(=O)NC[C@H](NC(=O)Cc1ccc(NC(=O)Nc2ccccc2C)cc1)C(=O)N[C@@H](CC(=O)O)C(=O)N[C@H](C(=O)N1CCC[C@H]1C(N)=O)C(C)CC (stereo partly drawn) [(3S)-3-{[(2S,3S)-1-[(2S)-2-carbamoylpyrrolidin-1-yl]-3-methyl-1-oxopentan-2-yl]carbamoyl}-3-[(2S)-3-heptanamido-2-[1-(4-{[(2-methylphenyl)carbamoyl]amino}phenyl)acetamido]propanamido]propanoic acid] ({NH(2-Me-phenyl)-CO}-[X1][Dap](Heptanoyl)D[Ile(3ξ)]P-NH2) | 312

Same assay, conditions: pH 7.5; 22 °C

Row | SMILES | IC50 [nM]
18 | CCCC[C@H](NC(=O)Cc1ccc(NC(=O)Nc2ccccc2C)cc1)C(=O)N[C@@H](CC(=O)O)C(=O)N[C@H](C(=O)N1CCC[C@H]1C(N)=O)C(C)CC (stereo partly drawn) [(3S)-3-{[(2S,3S)-1-[(2S)-2-carbamoylpyrrolidin-1-yl]-3-methyl-1-oxopentan-2-yl]carbamoyl}-3-[(2S)-2-[1-(4-{[(2-methylphenyl)carbamoyl]amino}phenyl)acetamido]hexanamido]propanoic acid] | 1.4
